Measured values: patent publication US8993514B1 (The Florida State University Research Foundation, Inc., priority 2011, dated 2015)
“And” between values parts separate entries of the source, which are not always exact repeats. Equal entries are not always repeated. Where two headings read alike, the source gives them in different places.

Columns and labels:
[1] = system: cultured neurons and astrocytes; settings: cited from earlier work
[2] = format: binding; settings: 1% DMSO
[3] = format: binding; settings: for hemin binding indicated by decrease of fluorescence intensity as hemin is added: pH 7.4; for estimated number of hemin molecules bound to the respective peptide: 25° C.
[4] = system: brain edema after traumatic brain injury; settings: in vivo, 8 mg/kg

Substance	hemin concentration sufficient to kill 60%-70% of cultured neurons and astrocytes [1] [µM]	hemin binding indicated by SPR response increasing with hemin concentration [2]	hemin binding indicated by decrease of fluorescence intensity as hemin is added [3]	estimated number of hemin molecules bound to the respective peptide ([3]; pH = 5.0)	estimated number of hemin molecules bound to the respective peptide ([3]; pH = 7.4)	% water content of brain tissue from impacted region, individual rat [4]	% water content of brain tissue from impacted region, average ([4]; rat) [%]	effect on brain swelling ([4]; rat)
hemin	3 to 30	–	–	–	–	–	–	–
GQPHGGGWGQPHGGGWGQPHGGGWGQPHGGGWGQGGG (Synthetically generated peptide) [SEQ ID NO: 6, 4-repeat peptide of the octarepeat region with additional flanking residues]	–	hemin binds to the respective peptide	hemin forms a chemical bond	4.0	2.0	–	–	–
PHGGGWGQPHGGGWGQ [SEQ ID NO: 3]	–	–	hemin forms a chemical bond	–	–	80.93% and 77.24% and 80.98%	79.72	reduced the brain swelling
